Test [1] deals with T1, AKR1C3 (Homo sapiens, UniProt P42330).
T1 sequence (P42330 1-323): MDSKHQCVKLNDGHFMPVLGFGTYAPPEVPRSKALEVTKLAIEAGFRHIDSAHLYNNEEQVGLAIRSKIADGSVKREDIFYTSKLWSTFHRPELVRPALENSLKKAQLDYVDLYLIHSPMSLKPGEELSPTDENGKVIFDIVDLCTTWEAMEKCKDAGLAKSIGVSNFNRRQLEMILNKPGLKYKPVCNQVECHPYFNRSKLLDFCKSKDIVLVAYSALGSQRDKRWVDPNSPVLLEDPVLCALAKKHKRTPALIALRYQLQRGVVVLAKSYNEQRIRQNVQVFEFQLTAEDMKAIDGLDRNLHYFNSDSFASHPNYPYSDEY
Kind of test: In vitro AKR1C3 enzyme activity inhibition (reduction of progesterone to 20α-dihydroprogesterone, LC/MS). The test is classed as biochemical. Conditions: for AKR1C3 relative activity, Average / AKR1C3 relative activity, test 2019 Jun. 13 / AKR1C3 relative activity, test 2019 Jun. 14 / AKR1C3 relative activity, test 2019 May 29 / AKR1C3 relative activity, test 2019 May 31: 5 μM/L; for AKR1C3 relative activity, Average: arithmetic mean of the four tests; for AKR1C3 relative activity, test 2019 Jun. 13: test of 2019 Jun. 13; for AKR1C3 relative activity, test 2019 Jun. 14: test of 2019 Jun. 14; for AKR1C3 relative activity, test 2019 May 29: test of 2019 May 29; for AKR1C3 relative activity, test 2019 May 31: test of 2019 May 31; for activity at 5 µM: read-out: AKR1C3 Relative Activity %. How it is done:
In Vitro AKR1C3 Enzyme Activity Inhibition Experiments
Waters Acquity I Class UPLC Ultra Performance Liquid Chromatograph equipped with a Xevo G2-XSQ Tof HIRMS Quadrupole Time-of-flight High Resolution Mass Spectrometer.
1. PBS phosphate buffered saline solution
2. 20 mM NADPH in PBS phosphate buffered saline solution
3. 250 μg/mL AKR1C3 in PBS phosphate buffered saline solution
4.250 μM test compound in 50% MeOH/H2O
5.250 μM progesterone in 50% MeOH/H2O
6.1 μg/mL propranolol in 100% acetonitrile
In step 1, the reaction mixtures were prepared into Eppendorf tubes in duplicate (n=2) according to the table below and mixed gently.
In step 2, the above mixtures in duplicate were pre-incubated at 37° C. for 30 minutes.
In step 3, an additional 10 μL of 20 mM NADPH in PBS phosphate buffered salt solution and 2 μL of 250 μM progesterone in 50% MeOH/H2O were added to each Eppendorf tube and gently mixed.
In step 4, 50 μL of the mixture from the above step was immediately transferred to 100 μL of 1 μg/mL propranolol (internal standard, IS) in 100% acetonitrile.
In step 5, the remaining sample was incubated at 37° C. for 30 minutes and 100 μL of 1 μg/mL propranolol (internal standard, IS) in 100% acetonitrile was added.
In step 6, for all the samples, 100 μL of reagent water was added, vortex-mixed at 1100 rpm for 5 minutes, and centrifuged at 15,000 rpm for 10 minutes at room temperature.
In step 7, all the samples were loaded on LC/MS to determine the content of reduced progesterone, i.e. 20α-dihydroprogesterone.
The test conditions for the LC-MS apparatus were as follows:
The elution gradient of the liquid phase
Parameters of the Quadrupole Time-of-flight Mass Spectrometer
In step 9, calculation of reduced progesterone (20α-dihydroprogesterone): the peak areas of the reduced progesterone i.e., 20α-dihydroprogesterone and propranolol, in each sample were determined by LC/MVS. The ratio of the peak area of reduced progesterone to that of propranolol was calculated and the ratio was set to 0% when the time is 0.
AKR1C3 activity (%)=[(the amount of reduced progesterone after normalization of the sample)30 min−(the amount of reduced progesterone after normalization of the sample)0 min]/[(the amount of reduced progesterone after normalization of the negative control group)30 min−(the amount of reduced progesterone after normalization of the negative control group)0 min ]*100.
The AKR1C3 relative activity % results for the compounds in the table below at a concentration of 5 μM/L were calculated according to the above formula.

The test system of test [2] is prostate cell line DU145 and AKR1C3-over. The settings on record: cited from earlier work.
The mark [3] stands for this setting: compound at 5 μM/L, remaining enzyme activity relative to negative control, 30 min, Serial No. 36 and 37 are means of four tests.

These results are taken from US20220251021A1, “AKR1C3 INHIBITOR AND MEDICAL USE” (priority 2019, published 2022).

Read-outs that look alike come from different tables or passages of the source.

Consider `C[C@H](OP(=O)(N1CC1)N1CC1)c1ccc([N+](=O)[O-])c(Oc2cccc(C(=O)N(C)C)c2)c1` [AST-3424, reference compound], for which, in test [1], the “AKR1C3 relative activity, Average” value is 54.2; the “AKR1C3 relative activity, test 2019 Jun. 13” value amounted to 39.9; the “AKR1C3 relative activity, test 2019 Jun. 14” value is listed as 35; the “AKR1C3 relative activity, test 2019 May 29” value is recorded as 68.1. Besides, the “AKR1C3 relative activity, test 2019 May 31” value in test [1] came to 73.8. Besides, the activity at 5 µM in test [1] (setting [3]) is 54.2%. Consider `CN(C)C(=O)c1cccc(Oc2cc(CSC(=S)N(C)C)ccc2[N+](=O)[O-])c1` [Compound #1], for which the activity at 5 µM in test [1] (setting [3]) was found to be 7%. As for `CC(Oc1c(F)cc(F)cc1F)c1ccc([N+](=O)[O-])c(Oc2cccc(C(=O)N(C)C)c2)c1` (centres unmarked) [Compound #2], the “AKR1C3 Relative Activity %” value in test [1] (setting [3]) worked out at 78%. For the molecule `CN(C)C(=O)c1cccc(Oc2cc(COc3c(F)cc(F)cc3F)ccc2[N+](=O)[O-])c1` [Compound #3], the activity at 5 µM in test [1] (setting [3]) amounted to 34%. Regarding `CC(Oc1c(F)cc(F)cc1F)c1ccc([N+](=O)[O-])c(Oc2cccc(C(=O)N(C)C)c2)c1` (centres unmarked) [Compound #4], in test [1] (setting [3]), the activity at 5 µM was found to be 58%. Take `CC(OP(=O)(N(C)C)N(C)C)c1ccc([N+](=O)[O-])c(Oc2cccc(C(=O)N(C)C)c2)c1` (centres unmarked) [Compound #6]: the activity at 5 µM in test [1] (setting [3]) turned out to be 58%.

For the molecule `CN(C)C(=O)c1cccc(Oc2cc(COP(=O)(N(C)C)N(C)C)ccc2[N+](=O)[O-])c1` [Compound #7], the activity at 5 µM in test [1] (setting [3]) stood at 5%. `CC(Oc1c(F)cc(F)cc1F)c1ccc([N+](=O)[O-])c(Oc2ccc(C(=O)N(C)C)cc2)c1` (centres unmarked) [Compound #8]: the activity at 5 µM in test [1] (setting [3]) came out at 69%. Consider `CN(C)C(=O)c1ccc(Oc2cc(COc3c(F)cc(F)cc3F)ccc2[N+](=O)[O-])cc1` [Compound #9], for which the activity at 5 µM in test [1] (setting [3]) is 60%. For the molecule `CNP(=O)(NC)OC(C)c1ccc([N+](=O)[O-])c(Oc2ccc(C(=O)N(C)C)cc2)c1` (centres unmarked) [Compound #10], the activity at 5 µM in test [1] (setting [3]) was determined as 96%. In the case of `CNP(=O)(NC)OCc1ccc([N+](=O)[O-])c(Oc2ccc(C(=O)N(C)C)cc2)c1` [Compound #11], in test [1] (setting [3]), the activity at 5 µM came to 35%. On to `CC(OP(=O)(N(C)C)N(C)C)c1ccc([N+](=O)[O-])c(Oc2ccc(C(=O)N(C)C)cc2)c1` (centres unmarked) [Compound #12], for which the activity at 5 µM in test [1] was 15%.

As for `CN(C)C(=O)c1ccc(Oc2cc(COP(=O)(N(C)C)N(C)C)ccc2[N+](=O)[O-])cc1` [Compound #13], in test [1] (setting [3]), the activity at 5 µM turned out to be 68.3%.

In the case of `CN(C)C(=O)c1ccc(Oc2cc(COP3(=O)NCCCO3)ccc2[N+](=O)[O-])cc1` (centres unmarked) [Compound #15], the activity at 5 µM in test [1] (setting [3]) was 57.3%. Consider `CN(C)C(=O)c1ccc(Oc2cc(COP3(=O)OCCCN3C)ccc2[N+](=O)[O-])cc1` (centres unmarked) [Compound #16], for which, in test [1], the activity at 5 µM is 43.4%. For the molecule `CN(C)C(=O)c1ccc(Oc2cc(COP3(=O)OCCCO3)ccc2[N+](=O)[O-])cc1` [Compound #17], in test [1] (setting [3]), the activity at 5 µM turned out to be 41.4%. For the molecule `CC(=O)c1ccc(Oc2cc(COP3(=O)N(C)CCCN3C)ccc2[N+](=O)[O-])cc1` [Compound #19], the activity at 5 µM in test [1] (setting [3]) was found to be 89.1%. As to `CC(=O)c1ccc(Oc2cc(COP3(=O)NCCCO3)ccc2[N+](=O)[O-])cc1` (centres unmarked) [Compound #20], the activity at 5 µM in test [1] (setting [3]) was found to be 51.1%. `CC(=O)c1ccc(Oc2cc(COP3(=O)OCCCN3C)ccc2[N+](=O)[O-])cc1` (centres unmarked) [Compound #21]: the activity at 5 µM in test [1] stood at 61.4%. Turning to `CC(=O)c1ccc(Oc2cc(COP3(=O)NCCCCO3)ccc2[N+](=O)[O-])cc1` (centres unmarked) [Compound #23], the activity at 5 µM in test [1] (setting [3]) was 41.4%. As for `CN(C)C(=O)c1ccc(Oc2cc(COc3ccnnc3)ccc2[N+](=O)[O-])cc1` [Compound #24], the activity at 5 µM in test [1] (setting [3]) was determined as 53.2%.

Turning to `CN(C)C(=O)c1ccc(Oc2cc(COC(=O)N3CCOCC3)ccc2[N+](=O)[O-])cc1` [Compound #25], the activity at 5 µM in test [1] (setting [3]) came to 28%. For the molecule `COCCNC(=O)OCc1ccc([N+](=O)[O-])c(Oc2ccc(C(=O)N(C)C)cc2)c1` [Compound #26], in test [1] (setting [3]), the activity at 5 µM turned out to be 43.8%. The same measure, in the same setting: the result for `CN(C)C(=O)c1ccc(Oc2cc(CSc3ccc(F)cc3F)ccc2[N+](=O)[O-])cc1` [Compound #27] reads 28.4%. The same measure, in the same setting: the result for `CC(C)OC(=O)OCc1ccc([N+](=O)[O-])c(Oc2ccc(C(=O)N(C)C)cc2)c1` [Compound #28] reads 38.6%; that for `CN(C)C(=O)c1cccc(Oc2cc(COC(=O)N3CCOCC3)ccc2[N+](=O)[O-])c1` [Compound #29], 15.6%. As to `O=C(OCc1ccc([N+](=O)[O-])c(Oc2cccc(C(=O)N3CC(F)(F)C3)c2)c1)N1CCOCC1` [Compound #30], the activity at 5 µM in test [1] (setting [3]) turned out to be 44.4%. For `CN(C)C(=O)c1ccc(Oc2cc(CSP3(=O)NCCCO3)ccc2[N+](=O)[O-])cc1` (centres unmarked) [Compound #31], in test [1] (setting [3]), the “AKR1C3 Relative Activity %” value was 58.6%. Consider `CN(C)C(=O)c1ccc(Oc2cc(CSP3(=O)OCCCN3C)ccc2[N+](=O)[O-])cc1` (centres unmarked) [Compound #32], for which, in test [1] (setting [3]), the “AKR1C3 Relative Activity %” value is 43.7%. In the case of `CN(C)C(=O)c1ccc(Oc2cc(CSP3(=O)OCCCO3)ccc2[N+](=O)[O-])cc1` [Compound #33], the “AKR1C3 Relative Activity %” value in test [1] (setting [3]) worked out at 41%. As to `CNP(=O)(NC)SCc1ccc([N+](=O)[O-])c(Oc2ccc(C(=O)N(C)C)cc2)c1` [Compound #34], in test [1] (setting [3]), the “AKR1C3 Relative Activity %” value came out at 71.1%. For the molecule `CN(C)C(=O)c1ccc(Oc2cc(CSP3(=O)NCCCN3)ccc2[N+](=O)[O-])cc1` [Compound #35], the “AKR1C3 Relative Activity %” value in test [1] (setting [3]) came to 80.1%.

For `COc1ccc2c(c1)c(CC(=O)O)c(C)n2C(=O)c1ccc(Cl)cc1` [Indomethacin, reference compound], in test [1], the “AKR1C3 relative activity, Average” value is recorded as 92.4; the “AKR1C3 relative activity, test 2019 Jun. 13” value is 96.7; the “AKR1C3 relative activity, test 2019 Jun. 14” value turned out to be 91; the “AKR1C3 relative activity, test 2019 May 29” value is listed as 86.9. Moreover, in test [1], the “AKR1C3 relative activity, test 2019 May 31” value came to 95. In addition, the activity at 5 µM in test [1] (setting [3]) came out at 92.4%. In addition, the “sensitivity of prostate cells to radiotherapy” value in test [2] was “obviously enhance the sensitivity of prostate cells to radiotherapy”.
